In patent US6812251B2, “Taurine compounds” (priority 2001, dated 2004):

Legend:
Stability in solution = assay type: physicochemical
Source text: The prolonged stability is an advantage over taurolidine.

[1] = tested on: DU-145 human prostate tumor cells; test: Flow cytometry (propidium iodide) apoptosis, sub-G0/G1 peak; assay type: cell-based; details: DU-145 cells, 50 μM, 24 h
[2] = tested on: PA1 human ovarian tumor cells; test: Tumor cell growth inhibition, PA1 cells (cell counting); assay type: cell-based; details: PA-1, 5-100 μM, 3 d (72 h) exposure, electronic cell counting, mean ± SE, read-out: IC50 (concentration required to inhibit cell number by 50%)
[3] = Growth inhibition of a panel of cell lines by taurolidine; assay type: cell-based; details: range over all cell lines evaluated; read-out: IC50s, growth inhibition

In the case of `O=S1(=O)CCN(CN2CCS(=O)(=O)NC2)CN1` [Taurolidine, Bis-(1,1-dioxoperhydro-1,2,4-thiadiazinyl-4)methane], the stability in solution (Stability in solution) is reported as “very unstable in solution and spontaneously decomposes”, the “% apoptosis (sub-G0/G1 peak area)” value [1] is reported as 12.27% and the IC50 [2] is reported as 11.4 ± 1.8 µM. For the same compound, the IC50 [3] was 9.6 to 45 µM.
